These results are taken from ChEMBL document CHEMBL2413016, “Synthesis and in vivo evaluation of [(18)F]2-(4-(4-(2-(2-fluoroethoxy)phenyl)piperazin-1-yl)butyl)-4-methyl-1,2,4-triazine-3,5(2H,4H)-dione ([(18)F]FECUMI-101) as an imaging probe for 5-HT1A receptor agonist in nonhuman primates” (Bioorg Med Chem, 2013).

One experiment addresses D(1A) dopamine receptor (Homo sapiens, UniProt P21728). The experiment is described as follows: Binding affinity to dopamine 1 receptor (unknown origin).
The target of experiment [1] is Alpha-1A adrenergic receptor (Homo sapiens, UniProt P35348). The experiment is described as follows: Binding affinity to adrenergic alpha1A receptor (unknown origin).
Sequence of Alpha-1A adrenergic receptor (P35348 whole entry): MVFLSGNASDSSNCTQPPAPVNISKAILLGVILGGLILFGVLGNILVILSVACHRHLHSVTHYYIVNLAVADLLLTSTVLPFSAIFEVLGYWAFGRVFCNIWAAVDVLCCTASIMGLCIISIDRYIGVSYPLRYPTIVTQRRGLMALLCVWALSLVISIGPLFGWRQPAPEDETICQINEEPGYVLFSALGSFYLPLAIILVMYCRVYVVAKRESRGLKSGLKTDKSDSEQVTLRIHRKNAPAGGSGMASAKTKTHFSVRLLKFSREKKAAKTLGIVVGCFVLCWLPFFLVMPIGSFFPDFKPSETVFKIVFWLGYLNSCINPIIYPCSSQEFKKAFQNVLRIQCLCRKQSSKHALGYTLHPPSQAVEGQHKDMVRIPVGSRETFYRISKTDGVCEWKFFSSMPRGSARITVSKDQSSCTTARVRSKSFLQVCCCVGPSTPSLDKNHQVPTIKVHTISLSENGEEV
For experiment [2], the target named is 5-hydroxytryptamine receptor 2B (Homo sapiens, UniProt P41595). The experiment is described as follows: Binding affinity to 5HT2B receptor (unknown origin).
Experiment [3] deals with Alpha-1B adrenergic receptor (Homo sapiens, UniProt P35368). The experiment is described as follows: Binding affinity to adrenergic alpha1B receptor (unknown origin).
Sequence of Alpha-1B adrenergic receptor (P35368 whole entry): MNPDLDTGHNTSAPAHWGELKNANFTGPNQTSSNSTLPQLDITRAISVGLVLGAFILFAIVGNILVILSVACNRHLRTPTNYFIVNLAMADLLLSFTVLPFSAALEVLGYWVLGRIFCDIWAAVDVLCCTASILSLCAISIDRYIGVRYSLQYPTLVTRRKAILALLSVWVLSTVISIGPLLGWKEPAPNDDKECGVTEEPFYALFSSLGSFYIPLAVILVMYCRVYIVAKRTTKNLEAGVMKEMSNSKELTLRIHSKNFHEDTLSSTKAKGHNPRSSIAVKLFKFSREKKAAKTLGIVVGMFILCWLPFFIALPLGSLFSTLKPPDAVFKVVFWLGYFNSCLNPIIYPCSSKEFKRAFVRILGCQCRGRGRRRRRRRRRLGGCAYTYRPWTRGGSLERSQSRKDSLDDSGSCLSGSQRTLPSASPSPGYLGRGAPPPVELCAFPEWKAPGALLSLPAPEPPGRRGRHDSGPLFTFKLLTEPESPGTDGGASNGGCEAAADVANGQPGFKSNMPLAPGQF
Experiment [4] is described as follows: Binding affinity to benzodiazepine receptor in rat brain. Type of experiment: tissue-based.
In experiment [5] the target is Sigma non-opioid intracellular receptor 1 (Homo sapiens, UniProt Q99720). The experiment is described as follows: Binding affinity to sigma 1 receptor (unknown origin).
Sequence of Sigma non-opioid intracellular receptor 1 (Q99720 whole entry): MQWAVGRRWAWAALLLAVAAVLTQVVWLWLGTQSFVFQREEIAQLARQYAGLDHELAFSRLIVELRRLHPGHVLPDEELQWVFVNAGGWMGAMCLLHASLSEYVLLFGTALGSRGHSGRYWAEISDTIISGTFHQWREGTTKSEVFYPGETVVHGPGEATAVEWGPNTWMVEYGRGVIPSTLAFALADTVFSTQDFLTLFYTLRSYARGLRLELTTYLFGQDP
The target in experiment [6] is Alpha-2B adrenergic receptor (Homo sapiens, UniProt P18089). The experiment is described as follows: Binding affinity to adrenergic alpha2B receptor (unknown origin).
Another experiment has as its target Histamine H1 receptor (Homo sapiens, UniProt P35367). The experiment is described as follows: Binding affinity to histamine H1 receptor (unknown origin).
The target in experiment [7] is 5-hydroxytryptamine receptor 2A (Homo sapiens, UniProt P28223). The experiment is described as follows: Binding affinity to 5HT2A receptor (unknown origin).
Sequence of 5-hydroxytryptamine receptor 2A (P28223 whole entry): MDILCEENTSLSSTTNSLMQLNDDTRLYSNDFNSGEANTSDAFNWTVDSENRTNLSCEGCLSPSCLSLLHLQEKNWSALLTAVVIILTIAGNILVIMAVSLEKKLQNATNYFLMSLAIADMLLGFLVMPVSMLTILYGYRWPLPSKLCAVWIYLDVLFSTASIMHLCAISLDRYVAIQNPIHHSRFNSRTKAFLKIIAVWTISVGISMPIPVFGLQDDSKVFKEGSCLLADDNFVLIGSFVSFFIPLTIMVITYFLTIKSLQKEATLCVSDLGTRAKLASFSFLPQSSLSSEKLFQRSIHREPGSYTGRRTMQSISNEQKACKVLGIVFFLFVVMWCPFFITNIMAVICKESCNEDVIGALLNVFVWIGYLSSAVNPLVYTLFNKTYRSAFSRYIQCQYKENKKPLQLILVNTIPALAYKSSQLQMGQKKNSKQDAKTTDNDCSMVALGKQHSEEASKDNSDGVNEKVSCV
The target in experiment [8] is 5-hydroxytryptamine receptor 7 (Homo sapiens, UniProt P34969). The experiment is described as follows: Binding affinity to 5HT7 receptor (unknown origin).
Sequence of 5-hydroxytryptamine receptor 7 (P34969 whole entry): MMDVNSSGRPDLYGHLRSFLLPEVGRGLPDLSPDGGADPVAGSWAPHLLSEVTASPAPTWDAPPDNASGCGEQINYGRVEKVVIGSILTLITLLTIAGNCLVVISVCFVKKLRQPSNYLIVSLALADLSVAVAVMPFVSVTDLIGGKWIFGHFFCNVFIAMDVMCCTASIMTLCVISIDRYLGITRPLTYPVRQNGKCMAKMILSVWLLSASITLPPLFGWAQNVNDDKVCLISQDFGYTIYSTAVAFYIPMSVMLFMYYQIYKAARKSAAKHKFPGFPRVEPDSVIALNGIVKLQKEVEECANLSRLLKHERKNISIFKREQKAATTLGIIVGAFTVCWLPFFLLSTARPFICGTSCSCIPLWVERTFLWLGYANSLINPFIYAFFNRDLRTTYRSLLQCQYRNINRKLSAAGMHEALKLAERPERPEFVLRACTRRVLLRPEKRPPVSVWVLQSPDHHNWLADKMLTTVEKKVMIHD
Experiment [9] concerns the target Alpha-2C adrenergic receptor (Homo sapiens, UniProt P18825). The experiment is described as follows: Binding affinity to adrenergic alpha2C receptor (unknown origin).
For experiment [10], the target named is 5-hydroxytryptamine receptor 5A (Homo sapiens, UniProt P47898). The experiment is described as follows: Binding affinity to 5HT5A receptor (unknown origin).
The next experiment concerns the target D(4) dopamine receptor (Homo sapiens, UniProt P21917). The experiment is described as follows: Binding affinity to dopamine 4 receptor (unknown origin).
Experiment [11] deals with 5-hydroxytryptamine receptor 1A (Homo sapiens) (UniProt P08908). The experiment is described as follows: Partial agonist activity at human 5HT1A receptor expressed in CHO cells assessed as increase in [35S]GTPgammaS binding relative to serotonin. The experiment is classed as functional, cell-based.
Experiment [12] has as its target T1, 5-hydroxytryptamine receptor 1A (Homo sapiens, UniProt P08908).
T1 sequence (P08908 whole entry): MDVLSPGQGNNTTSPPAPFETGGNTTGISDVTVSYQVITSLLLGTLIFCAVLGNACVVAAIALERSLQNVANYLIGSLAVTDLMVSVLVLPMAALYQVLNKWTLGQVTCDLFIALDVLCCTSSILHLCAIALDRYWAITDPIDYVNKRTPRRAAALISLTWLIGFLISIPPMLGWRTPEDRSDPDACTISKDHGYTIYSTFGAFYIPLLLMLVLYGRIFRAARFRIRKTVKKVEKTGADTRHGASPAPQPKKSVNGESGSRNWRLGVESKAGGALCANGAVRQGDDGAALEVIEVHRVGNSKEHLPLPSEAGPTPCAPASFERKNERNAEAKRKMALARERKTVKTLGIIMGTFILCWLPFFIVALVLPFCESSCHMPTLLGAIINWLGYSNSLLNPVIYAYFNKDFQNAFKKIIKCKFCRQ
The experiment is described as follows: Binding affinity to 5HT1A receptor (unknown origin).

For experiment [13], the target named is 5-hydroxytryptamine receptor 1B (Homo sapiens, UniProt P28222). The experiment is described as follows: Binding affinity to 5HT1B receptor (unknown origin).
Sequence of 5-hydroxytryptamine receptor 1B (P28222 whole entry): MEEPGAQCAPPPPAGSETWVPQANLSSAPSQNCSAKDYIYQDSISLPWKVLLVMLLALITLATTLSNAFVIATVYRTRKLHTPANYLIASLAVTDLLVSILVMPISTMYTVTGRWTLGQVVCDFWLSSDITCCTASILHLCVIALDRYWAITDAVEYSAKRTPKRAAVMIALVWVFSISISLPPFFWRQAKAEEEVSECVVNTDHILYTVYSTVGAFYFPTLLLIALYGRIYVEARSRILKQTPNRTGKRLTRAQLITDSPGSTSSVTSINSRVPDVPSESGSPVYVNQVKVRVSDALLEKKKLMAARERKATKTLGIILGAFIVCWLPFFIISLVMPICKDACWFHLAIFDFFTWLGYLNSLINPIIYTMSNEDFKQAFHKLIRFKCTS
A further experiment deals with D(3) dopamine receptor (Homo sapiens, UniProt P35462). The experiment is described as follows: Binding affinity to dopamine 3 receptor (unknown origin).
Experiment [14] deals with Alpha-1D adrenergic receptor (Homo sapiens, UniProt P25100). The experiment is described as follows: Binding affinity to adrenergic alpha1D receptor (unknown origin).
Sequence of Alpha-1D adrenergic receptor (P25100 whole entry): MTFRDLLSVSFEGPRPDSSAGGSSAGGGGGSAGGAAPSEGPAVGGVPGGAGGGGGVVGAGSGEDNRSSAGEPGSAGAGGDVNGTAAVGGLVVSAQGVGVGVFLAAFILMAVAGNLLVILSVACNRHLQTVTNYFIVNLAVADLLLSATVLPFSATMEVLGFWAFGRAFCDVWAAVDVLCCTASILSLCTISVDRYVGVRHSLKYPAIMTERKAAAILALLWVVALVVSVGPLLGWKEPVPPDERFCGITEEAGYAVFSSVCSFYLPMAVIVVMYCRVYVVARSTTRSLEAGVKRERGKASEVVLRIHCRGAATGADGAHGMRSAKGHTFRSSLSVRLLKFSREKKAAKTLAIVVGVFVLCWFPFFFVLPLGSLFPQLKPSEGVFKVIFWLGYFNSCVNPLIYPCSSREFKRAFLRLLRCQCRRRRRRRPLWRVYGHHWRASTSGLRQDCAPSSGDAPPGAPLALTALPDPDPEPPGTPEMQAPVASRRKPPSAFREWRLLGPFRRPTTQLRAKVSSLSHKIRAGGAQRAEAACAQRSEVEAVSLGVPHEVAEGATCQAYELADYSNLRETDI
Experiment [15] in a line: Binding affinity to sigma 2 receptor (unknown origin). Details: species or system Homo sapiens.
The next experiment addresses D(2) dopamine receptor (Homo sapiens, UniProt P14416). The experiment is described as follows: Binding affinity to dopamine 2 receptor (unknown origin).
Experiment [16] concerns the target Alpha-2A adrenergic receptor (Homo sapiens, UniProt P08913). The experiment is described as follows: Binding affinity to adrenergic alpha2A receptor (unknown origin).
The target in experiment [17] is T1, 5-hydroxytryptamine receptor 1A. The experiment is described as follows: Partial agonist activity at human 5HT1A receptor expressed in CHO cells assessed as increase in [35S]GTPgammaS binding. Type of experiment: functional, cell-based.
In the next experiment the target is Histamine H2 receptor (Homo sapiens, UniProt P25021). The experiment is described as follows: Binding affinity to histamine H2 receptor (unknown origin).
The target in experiment [18] is 5-hydroxytryptamine receptor 1D (Homo sapiens, UniProt P28221). The experiment is described as follows: Binding affinity to 5HT1D receptor (unknown origin).
Sequence of 5-hydroxytryptamine receptor 1D (P28221 whole entry): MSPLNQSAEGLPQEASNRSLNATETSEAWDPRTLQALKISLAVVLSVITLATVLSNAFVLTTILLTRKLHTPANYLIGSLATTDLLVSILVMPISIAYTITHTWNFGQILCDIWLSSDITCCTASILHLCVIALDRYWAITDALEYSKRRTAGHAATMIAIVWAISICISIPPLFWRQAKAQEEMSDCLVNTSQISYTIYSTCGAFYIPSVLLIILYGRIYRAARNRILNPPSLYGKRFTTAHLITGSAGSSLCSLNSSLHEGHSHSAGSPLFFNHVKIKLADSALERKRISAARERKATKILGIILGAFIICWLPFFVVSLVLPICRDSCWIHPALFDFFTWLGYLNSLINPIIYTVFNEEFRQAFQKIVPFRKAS

Each structure is given as a SMILES string.

Sequence of D(1A) dopamine receptor (P21728 whole entry): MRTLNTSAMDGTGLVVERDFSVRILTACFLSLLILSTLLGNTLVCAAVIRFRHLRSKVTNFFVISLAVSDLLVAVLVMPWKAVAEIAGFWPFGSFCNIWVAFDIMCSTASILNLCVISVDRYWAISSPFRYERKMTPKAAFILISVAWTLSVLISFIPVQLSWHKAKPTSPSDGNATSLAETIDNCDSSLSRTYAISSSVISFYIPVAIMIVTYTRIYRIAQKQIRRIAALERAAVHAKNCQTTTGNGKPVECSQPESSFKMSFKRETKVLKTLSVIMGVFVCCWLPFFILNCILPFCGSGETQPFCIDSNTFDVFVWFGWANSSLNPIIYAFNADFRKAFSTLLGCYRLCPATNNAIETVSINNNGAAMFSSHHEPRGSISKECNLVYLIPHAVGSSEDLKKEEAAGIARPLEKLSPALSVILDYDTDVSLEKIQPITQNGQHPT
Sequence of Histamine H1 receptor (P35367 whole entry): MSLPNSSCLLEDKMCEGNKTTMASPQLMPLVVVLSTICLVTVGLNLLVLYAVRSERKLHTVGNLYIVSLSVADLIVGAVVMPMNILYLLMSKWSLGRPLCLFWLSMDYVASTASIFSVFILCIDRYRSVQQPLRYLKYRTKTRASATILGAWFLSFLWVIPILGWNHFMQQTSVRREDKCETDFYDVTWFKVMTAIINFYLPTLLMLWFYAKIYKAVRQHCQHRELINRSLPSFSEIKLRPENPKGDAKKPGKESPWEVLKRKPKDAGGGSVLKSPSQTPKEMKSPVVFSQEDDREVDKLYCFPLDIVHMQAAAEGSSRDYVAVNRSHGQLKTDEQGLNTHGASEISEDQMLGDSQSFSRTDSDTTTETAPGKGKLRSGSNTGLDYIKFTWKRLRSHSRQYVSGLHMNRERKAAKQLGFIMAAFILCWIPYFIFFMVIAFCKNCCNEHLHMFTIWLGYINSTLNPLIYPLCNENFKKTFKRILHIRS
Sequence of D(4) dopamine receptor (P21917 whole entry): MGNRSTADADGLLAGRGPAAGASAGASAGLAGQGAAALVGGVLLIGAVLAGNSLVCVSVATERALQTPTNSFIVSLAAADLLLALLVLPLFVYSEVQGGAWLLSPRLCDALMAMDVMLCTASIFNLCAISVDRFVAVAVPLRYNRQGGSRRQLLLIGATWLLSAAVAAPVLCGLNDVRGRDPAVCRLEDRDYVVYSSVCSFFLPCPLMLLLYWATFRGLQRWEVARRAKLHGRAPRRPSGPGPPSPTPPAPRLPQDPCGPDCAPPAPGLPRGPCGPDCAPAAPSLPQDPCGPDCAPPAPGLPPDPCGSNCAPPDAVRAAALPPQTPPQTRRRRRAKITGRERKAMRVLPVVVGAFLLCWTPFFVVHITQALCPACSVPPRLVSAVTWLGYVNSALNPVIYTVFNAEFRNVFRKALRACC

With `Cn1c(=O)cnn(CCCCN2CCN(c3ccccc3OCCF)CC2)c1=O`, the Ki on D(1A) dopamine receptor was above 10000 nM; in experiment [1], 21.4 nM; in [2] it was 300 nM; in [3] it was 26.8 nM; in [4] it was 6240 nM; in experiment [5], above 10000 nM. The Ki in experiment [6] is 56.2 nM; on Histamine H1 receptor it was 512 nM; in [7] it was above 10000 nM; in experiment [8], 17.2 nM; in experiment [9] it was 174 nM; in experiment [10], 2130 nM. Also, the Ki at D(4) dopamine receptor amounted to 71 nM; in [12] it was 0.1 nM; in experiment [13] it was 411 nM; on D(3) dopamine receptor it was 22 nM; in experiment [14], 62.6 nM; in [15], 1730 nM. In addition, the Ki is 37.1 nM at D(2) dopamine receptor, 2750 nM in [16], 1770 nM on Histamine H2 receptor and 235 nM in [18]. Further, the Emax in experiment [11] was 77%. Besides, the EC50 in experiment [17] is 0.65 nM.
With `COc1ccccc1N1CCN(CCCCn2ncc(=O)n(C)c2=O)CC1`, the inhibition constant (Ki) is above 10000 nM at D(1A) dopamine receptor; 6.75 nM in experiment [1]; 73.6 nM in [2]; above 10000 nM in experiment [3]; above 10000 nM in experiment [4]; 59 nM in experiment [5]. Moreover, the Ki in experiment [6] was 238 nM; at Histamine H1 receptor, 1030 nM; in experiment [7] it was 4980 nM; in experiment [8], 12.9 nM; in [9], 15 nM; in [10], above 10000 nM. For the same compound, the Ki at D(4) dopamine receptor was 21 nM; in experiment [12] it was 0.15 nM; in experiment [13], 643 nM; at D(3) dopamine receptor, above 10000 nM; in [14], above 10000 nM; in experiment [15] it was 123 nM. Further, the inhibition constant (Ki) on D(2) dopamine receptor is above 10000 nM; in [16] it was 96 nM; at Histamine H2 receptor it was 2130 nM; in [18], 88.3 nM. Also, the Emax in experiment [11] stood at 80%. Also, the EC50 in experiment [17] is 0.1 nM.
